Earlier results, collected in patent US12557816B2, “Compositions for controlling a plant disease” (NutriAg Ltd., priority 2017, dated 2026).

Settings: phosphorous acid: second dissociation; hydrogen phosphite ion: conjugate base

OP(O)O [Phosphorous acid, phosphorous acid]
pKa: about 1.3

hydrogen phosphite [hydrogen phosphite (or phosphonate) ion]
pKa: about 6.7
